Experiments:
diabetes mellitus = test: Prevention of type 1 diabetes in NOD mice; type: in vivo, mouse; conditions: compared to control mice
From the text: Germ-free non-obese diabetic (NOD) mouse pups are weaned 3 weeks after birth and put on a polysaccharide-free diet that contains Vitamin A. As soon as the mouse pups are weaned, they are gavaged with a dysbiotic (no Bifidobacterium sp. and high proteobacteria) human infant microbiome at Day 1 of the experiment. The mice are divided into 4 groups: control, control plus LNnT, B. infantis, and B. infantis plus LNnT. Mice are given the composition for 21 days. All Groups receive B. infantis or a placebo every 3 days by gavage; the LNnT or placebo is added to the drinking water. Additional mice are divided into 2 groups These groups are gavaged with a healthy human infant microbiome (Bifidobacterium species) at day 21 of the experiment. The mice are then either fed placebo or LNnT in their drinking and receive vitamin A in their chow. Mice are monitored for diabetes with weekly tail vein blood glucose measurements and euthanized following two consecutive daily readings of >[…]. […] Plasma is evaluated for cytokines and innate immune factors. Fecal samples are taken every day and evaluated using qPCR and/or 16s and/or shotgun sequencing for microbial colonization. […]

infant gut microbiome = test: Infant fecal microbiome analysis (16S rDNA sequencing, B. infantis qPCR); type: in vivo, human
Description: Infant fecal samples were collected throughout the 60-day trial. Mothers collected their own fecal and breastmilk samples as well as fecal samples from their infants. They filled out weekly, biweekly and monthly health and diet questionnaires, as well as daily logs about their infant feeding and gastrointestinal tolerability (GI). Safety and tolerability were determined from maternal reports of infants' feeding, stooling frequency, and consistency (using a modified Amsterdam infant stool scale—watery, soft, formed, hard; Bekkali et al. 2009), as well as GI symptoms and health outcomes. Individual fecal samples were subjected to full microbiome analysis using Illumina sequencing based on 16S rDNA and qPCR with primers designed specifically for B. longum subsp. infantis strain.
Evaluation of EVC001 colonization. As previously described in Frese et al. (2017) (mSphere 2(6): e00501-00517) colonization is measured at baseline and post-feeding by quantitative PCR using specific primers for B. infantis. Colonization is considered when B. infantis abundance is greater than 10^5, but more preferably greater than 10^7 or 10^8 CFU/ug DNA. Colonization may also be described as a significant expansion of the total relative contribution of Bifidobacteriaceae to the infant gut microbiome.
Bacterial DNA Methods. The relative abundance of the stool bacteria at the phylum, class, order, family, and genus level was characterized by performing a sequence analysis of the V4 segment of the 16S rRNA gene using QIIME v1.9.1.

[1] = infant feces, Day 6 (Baseline), before supplementation starts on Day 7

Substance: Bifidobacterium longum subsp. infantis EVC001 [B. infantis EVC001]
- Incidence of the development of diabetes mellitus (diabetes mellitus): reduces
- Levels of proteobacteria and enterococci (infant gut microbiome; colonized infants versus unsupplemented): much lower levels
- B. infantis colonization level of infant gut (infant gut microbiome; continued after supplementation ended (Day 28) while breast milk consumed): higher than 10^10 cfu/g feces
- Bacteroidaceae % Relative Abundance (infant gut microbiome; [1]): 0.1040%
- Bifidobacteriaceae % Relative Abundance (infant gut microbiome; [1]): 0.1472%
- Clostridiaceae % Relative Abundance (infant gut microbiome; [1]): 0.0874%
- Enterobacteriaceae % Relative Abundance (infant gut microbiome; [1]): 0.2743%
- Enterococcaceae % Relative Abundance (infant gut microbiome; [1]): 0.0539%
- Lachnospiraceae % Relative Abundance (infant gut microbiome; [1]): 0.0197%
- Other families % Relative Abundance (infant gut microbiome; [1]): 0.1357%
- Staphylococcaceae % Relative Abundance (infant gut microbiome; [1]): 0.0543%
- Streptococcaceae % Relative Abundance (infant gut microbiome; [1]): 0.1169%
- Veillonellaceae % Relative Abundance (infant gut microbiome; [1]): 0.0065%
- Bifidobacteriaceae % Relative Abundance (infant gut microbiome; infant feces, Day 40): significantly higher
- Enterococcaceae % Relative Abundance (infant gut microbiome; infant feces, Day 40): 0.0045%
- Lachnospiraceae % Relative Abundance (infant gut microbiome; infant feces, Day 40): 0.0072%
- Other families % Relative Abundance (infant gut microbiome; infant feces, Day 40): 0.0215%
- Staphylococcaceae % Relative Abundance (infant gut microbiome; infant feces, Day 40): 0.0036%
- Streptococcaceae % Relative Abundance (infant gut microbiome; infant feces, Day 40): 0.0291%
- Veillonellaceae % Relative Abundance (infant gut microbiome; infant feces, Day 40): 0.0077%
- Bifidobacteriaceae % Relative Abundance (infant gut microbiome; infant feces, Day 40, listed as EVC001): 0.8712%
- Enterobacteriaceae % Relative Abundance (infant gut microbiome; infant feces, Day 60): 0.0427%
- Enterococcaceae % Relative Abundance (infant gut microbiome; infant feces, Day 60): 0.0082%
- Lachnospiraceae % Relative Abundance (infant gut microbiome; infant feces, Day 60): 0.0081%
- Other families % Relative Abundance (infant gut microbiome; infant feces, Day 60): 0.02443%
- Staphylococcaceae % Relative Abundance (infant gut microbiome; infant feces, Day 60): 0.0039%
- Streptococcaceae % Relative Abundance (infant gut microbiome; infant feces, Day 60): 0.0277%
- Veillonellaceae % Relative Abundance (infant gut microbiome; infant feces, Day 60): 0.0076%
- Gut microbiome share of B. longum subsp. infantis (infant gut microbiome; supplemented infants, on average, regardless of birthing mode): greater than 70%

Source: patent US20210308196A1, “COMPOSITIONS AND METHODS TO PROMOTE HOST DEFENSE AND STIMULATE, EXPAND, AND/OR RESET T CELL REPERTOIRES” (EVOLVE BIOSYSTEMS, INC., priority 2018, published 2021)
